In patent publication US20230142366A1, “NOVEL POLYMORPHIC FORMS OF METOPIMAZINE” (Neurogastrx, Inc., priority 2020, published 2023):
Where a name gives a salt, the structure may show the parent alone. Marks after values point to notes of the source that are not given here.

Columns and labels:
[1] = Clinical comparative pharmacokinetic study, 3-period cross-over, single oral doses, plasma samples; assay type: in vivo, human
Experimental: A clinical comparative pharmacokinetic study was performed to understand the pharmacokinetic profile of metopimazine mesylate Crystal Form A in comparison to the free base of metopimazine. This study was as a 3-period, cross-over design with 3 administrations of single doses: oral formulation of metopimazine mesylate Crystal Form A fasting, oral formulation of metopimazine mesylate Crystal Form A after a high-fat breakfast, and oral formulation of metopimazine free base fasting, with a wash-out period of 48 hours between each administration. Fifteen subjects were enrolled and received each of the 3 treatment. Plasma samples from each subject were analyzed for various pharmacokinetic parameters. Mixed model repeated measures (MMRM) analysis was performed on each sample.
The second objective of this study was to compare the pharmacokinetics of metopimazine mesylate Crystal Form A administered as an oral administration of a single dose of 15 mg orally in 15 human subjects either in a fasted state or after a high fat breakfast. Plasma samples from each subject were analyzed for various pharmacokinetic parameters. […] Both Cmax and AUC are well within the 90% confidence interval.

[2] = before and after a high fat breakfast; cited from earlier work
[3] = 15 mg single oral dose, n = 15, fasted
[4] = 90% confidence interval of ratio fasted vs fed
[5] = 90% confidence interval of ratio fasted vs fed, marked bioequivalence
[6] = single dose of 15 mg orally, 15 human subjects

| Structure (SMILES) | Tmax CV % [1, 3] | Tmax Max [1, 3] | Tmax Median [1, 3] | Tmax Min [1, 3] | Tmax Mean ([1]; 15 mg single oral dose, n = 15, fasted, plasma) | Reduction in AUC (food effect) [2] | Reduction in Cmax (food effect) [2] | Variance of Tmax values compared with metopimazine free base ([1]; 15 mg oral, fasted, MMRM analysis) | Change in AUC when administered with food ([1]; 15 mg oral, fed vs fasted) | Reduction in Cmax when administered with food ([1]; 15 mg oral, fed vs fasted) | AUC0-inf GLSM Ratio fasted vs fed (%) ([1]; 15 mg, n = 15) | Cmax GLSM Ratio fasted vs fed (%) ([1]; 15 mg, n = 15) | Cmax ratio Lower CI % [1, 4] | Cmax ratio Upper CI % [1, 4] | AUC0-inf ratio Lower CI % [1, 5] | AUC0-inf ratio Upper CI % [1, 5] | Geometric mean difference in AUC, high fat breakfast vs fasted [1, 6] | Geometric mean difference in Cmax, high fat breakfast vs fasted [1, 6] |
| --- | --- | --- | --- | --- | --- | --- | --- | --- | --- | --- | --- | --- | --- | --- | --- | --- | --- | --- |
| CS(=O)(=O)c1ccc2c(c1)N(CCCN1CCC(C(N)=O)CC1)c1ccccc1S2 [Metopimazine free base, 1-(3-(2-(methylsulfonyl)-10H-phenothiazin-10-yl)propyl)piperidine-4-carboxamide, reference compound] | 77.33% | 4.00 h | 1.00 h | 0.50 h | 1.27 h | 23% | 58% | – | – | – | – | – | – | – | – | – | – | – |
| CS(=O)(=O)c1ccc2c(c1)N(CCCN1CCC(C(N)=O)CC1)c1ccccc1S2 [Metopimazine mesylate Crystal Form A, 1-(3-(2-(methylsulfonyl)-10H-phenothiazin-10-yl)propyl)piperidine-4-carboxamide methanesulfonic acid] | 34.25% | 1.50 h | – | 0.50 h | – | – | – | statistically significantly lower variance | no notable change in AUC | approximately 15% | 93.63% | 84.07% | 63.82% | 110.75% | 86.00* % | 101.93* % | not statistical difference | slightly but significantly lower |
